Test results reported in patent US20040152659A1, “Method for the treatment of parkinson's disease comprising administering an A1A2a receptor dual antagonist” (Fujisawa Pharmaceutical Co. Ltd., priority 1999, published 2004).

Legend:
[1] = molecular target: T1, human recombinant A1 receptors (Homo sapiens, UniProt P30542); assay: Estimation of Adenosine A1-receptor antagonizing activity ([3H]-DPCPX binding, CHO cell membrane fractions)
T1 construct: expressed in transfected cells; host or cells: CHO cells
T1 sequence (P30542 1-326): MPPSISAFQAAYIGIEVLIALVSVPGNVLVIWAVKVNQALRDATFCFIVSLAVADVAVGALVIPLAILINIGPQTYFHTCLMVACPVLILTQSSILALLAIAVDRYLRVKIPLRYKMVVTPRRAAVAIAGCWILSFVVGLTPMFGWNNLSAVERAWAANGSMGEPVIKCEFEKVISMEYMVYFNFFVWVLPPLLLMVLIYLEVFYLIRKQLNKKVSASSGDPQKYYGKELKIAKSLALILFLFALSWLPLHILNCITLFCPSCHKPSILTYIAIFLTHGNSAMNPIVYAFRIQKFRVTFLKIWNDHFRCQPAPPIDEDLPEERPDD
Text: (§1) The existence and intensity of “adenosine A1-receptor antagonizing activity” and/or “adenosine A2a-receptor antagonizing activity” can be ascertained and assessed typically by the following test method. The intensity of adenosine A1-receptor antagonizing action and of adenosine A2a-receptor antagonizing action as referred to in the appended claims also means the value found by the method described below.
(§2) “Estimation of Adenosine A1 and A2a-receptor antagonizing activity”
(§3) Membrane fractions prepared from the CHO cells which transfected stably with human recombinant A1 or A2a receptors were incubated for 1 hr at 25° C. with test compounds, ADA, 50 mM Tris buffer and [3H]-DPCPX (final 4 nM) or [3H]-CGS21680 (final 15 nM), respectively. Reaction mixtures were filtrated with 96-well harvestor to separate free ligands from bound fraction using GF/C filter. Radioactivity of the dried filter was counted, and specific binding of each labelled rigands was calculated.

[2] = test system: Male Wistar rats; assay: Test 3 Impaired-memory ameliorating action (scopolamine-impaired retention trial); format: in vivo; conditions: scopolamine 1 mg/kg i.p. + test compound 1 mg/kg i.p. immediately after acquisition trial, scopolamine + control 80.2 ± 34.9, intact 300 ± 0
Protocol: Test 3 Impaired-Memory Ameliorating Action
Male Wistar rats were serially subjected to an acclimation trial, an acquisition trial 1 hour after the acclimation trial, and a retention trial 24 hours after the acquisition trial. Scopolamine 1 mg/kg was intraperitoneally administered 30 minutes before the acquisition trial. The test compound was intraperitoneally administered immediately after the acquisition trial.

[3] = test system: male SD rats; assay: Test 2 Anxiolytic action (social interaction test); format: in vivo; conditions: 0.32 mg/kg oral 1 h before test, 15 min observation, control 51.3 ± 6.0
Protocol: Two male SD rats acclimated for 1 week and handled once were used in sets. One hour before beginning of the test, both rats in each set were orally dosed with the same amount of the test compound or the vehicle. Immediately thereafter, both rats were placed in a new environment where territories were to be established as yet and their behaviors were monitored and recorded over 15 minutes. After the test, the records were analyzed and evaluated in terms of the total duration of social interaction (social interaction time) (observation items: sniffing, following, grooming, kicking, boxing, biting, wrestling, crawling under or over the partner).

[4] = molecular target: T2, human recombinant A2a receptors (Homo sapiens, UniProt P29274); assay: Estimation of Adenosine A2a-receptor antagonizing activity ([3H]-CGS21680 binding, CHO cell membrane fractions); conditions: at a concentration of 1.0×10^−6 M; [3H]-CGS21680 15 nM; read-out: inhibition rate for Adenosine A2a-receptor
T2 construct: expressed in transfected cells; host or cells: CHO cells
Text: as §1, §2, §3

[5] = test system: Mice; assay: Test 1 Anticataleptic action (haloperidol-induced catalepsy); format: in vivo; conditions: 1 mg/kg oral, 30 min before haloperidol 0.32 mg/kg i.p., observed 30 min later, control 100
Protocol: Test 1 Anticataleptic Action
Mice were orally dosed with the test compound as a suspention in 0.5% of methyl cellulose and, 30 minutes later, intraperitoneally dosed with 0.32 mg/kg of haloperidol.

T2 sequence (P29274 whole entry): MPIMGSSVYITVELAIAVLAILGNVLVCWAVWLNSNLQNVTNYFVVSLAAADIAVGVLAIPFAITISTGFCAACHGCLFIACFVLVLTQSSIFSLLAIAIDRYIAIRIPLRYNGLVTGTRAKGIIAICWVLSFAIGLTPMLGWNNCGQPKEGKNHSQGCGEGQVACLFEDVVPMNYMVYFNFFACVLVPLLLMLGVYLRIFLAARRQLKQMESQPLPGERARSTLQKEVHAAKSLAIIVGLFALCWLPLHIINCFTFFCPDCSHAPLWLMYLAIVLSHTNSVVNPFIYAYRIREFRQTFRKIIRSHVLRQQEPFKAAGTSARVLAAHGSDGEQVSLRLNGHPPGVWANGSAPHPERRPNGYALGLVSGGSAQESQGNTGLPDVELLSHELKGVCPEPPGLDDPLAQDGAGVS

For `O=c1ccc(-c2c(-c3ccccc3)nn3ccccc23)nn1Cc1nccs1` [(A), 3-[2-(Thiazol-2-ylmethyl)-3-oxo-2,3-dihydropyridazin-6-yl]-2-phenylpyrazolo[1,5-a]pyridine], the “affinity for the adenosine A1-receptor relative to affinity for the adenosine A2a receptor” value ([1]; A1 affinity as a multiple of A2a affinity) was 36 times, the inhibition at 1 µM ([1]; at a concentration of 1.0×10^−6 M, [3H]-DPCPX 4 nM, read-out: inhibition rate for Adenosine A1-receptor) was no less than 80% and the “Reaction latency in retention trial” value [2] was 215.6 ± 35.0 s. For the same compound, the Social interaction time [3] was 90.5 ± 12.5 s, the inhibition at 1 µM [4] was no less than 80% and the Incidence of catalepsy [5] was 20%.
